Columns and labels:
[1] = tested on: WI-38 cells; assay: Viability of WI-38 cells, Alamar Blue (Assay 5); type: cell-based, human
How it was run: (§1)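 Cell viability was read by Alamar Blue fluorescence (530/590 nm) after 4 h at 37 °C, following an overnight 37 °C incubation of human lung fibroblasts with 1 nM IL-1α and compound (3 or 30 μM) in 10% FBS MEM, pH 7.3. Supernatant PGE2 was measured by radioimmunoassay to derive percent inhibition.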

[2] = tested on: α-smooth muscle actin (α-SMA) mRNA; assay: Anti-remodelling activity in human lung fibroblasts (HFL1): TGFβ-induced α-SMA mRNA (Assay 4); type: cell-based; details: Homo sapiens, HFL1 cells, TGFβ 10 ng/ml, 24 h, read-out: Inhibition of α-SMA mRNA synthesis (%)
How it was run: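 Real-time RT-PCR of α-SMA mRNA, GAPDH as reference, measured after 24 h exposure of low-serum-primed HFL1 cells to 10 ng/ml TGFβ with test compounds (3 and 30 μM) in 10% FBS medium. Readout is inhibition of TGFβ-driven α-SMA mRNA overexpression.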

[3] = tested on: histamine-induced contractions in guinea pig ileum; assay: Inhibition of histamine-induced contractions in guinea pig ileum (Assay 3); details: Cavia porcellus, histamine 1.7 μM, read-out: Inhibition of histamine-induced contraction (%)
How it was run: (§2)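 Ileal strips from male Duncan Hartley guinea pigs were held at 1 g tension in 32° C oxygenated Krebs (pH 7.4) with isotonic transducers. After control contractions to 5-HT (2.6 μM) or histamine (1.7 μM), compound at 3 and 30 μM was added, its own effect noted, and agonist re-applied.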

[4] = tested on: IL-1α-induced PGE2 release; assay: IL-1α-induced PGE2 release in human diploid lung fibroblasts (WI-38) (Assay 5); type: cell-based; details: Homo sapiens, WI-38 cells, IL-1α 1 nM, overnight
How it was run: as §1

[5] = target: TRPV1 receptor (Rattus norvegicus, UniProt O35433); assay: TRPV1 modulation in DRG neurones: CGRP release in absence and presence of capsaicin (Assay 2); type: cell-based; set-up: The culture used for this experiment contained sensory neurones, Schwann cells and fibroblasts; endogenous in cells; host or cells: primary rat DRG sensory neurone culture (with Schwann cells and fibroblasts); details: 20 min; for inhibition at 3 µM: 3 μM with capsaicin 1 μM; for inhibition at 3 µM / inhibition at 30 µM: −ve: inhibition, +ve: potentiation of capsaicin response, read-out: Effect of test compounds on capsaicin (1 μM)-induced CGRP release (%); for inhibition at 30 µM: 30 μM with capsaicin 1 μM; for Emax at 3 µM: test compound alone 3 μM; for Emax at 3 µM / Emax at 30 µM: rat DRG sensory neurones, read-out: CGRP release (% of capsaicin (1 μM) response); for Emax at 30 µM: test compound alone 30 μM
TRPV1 receptor, sequence (O35433 whole entry): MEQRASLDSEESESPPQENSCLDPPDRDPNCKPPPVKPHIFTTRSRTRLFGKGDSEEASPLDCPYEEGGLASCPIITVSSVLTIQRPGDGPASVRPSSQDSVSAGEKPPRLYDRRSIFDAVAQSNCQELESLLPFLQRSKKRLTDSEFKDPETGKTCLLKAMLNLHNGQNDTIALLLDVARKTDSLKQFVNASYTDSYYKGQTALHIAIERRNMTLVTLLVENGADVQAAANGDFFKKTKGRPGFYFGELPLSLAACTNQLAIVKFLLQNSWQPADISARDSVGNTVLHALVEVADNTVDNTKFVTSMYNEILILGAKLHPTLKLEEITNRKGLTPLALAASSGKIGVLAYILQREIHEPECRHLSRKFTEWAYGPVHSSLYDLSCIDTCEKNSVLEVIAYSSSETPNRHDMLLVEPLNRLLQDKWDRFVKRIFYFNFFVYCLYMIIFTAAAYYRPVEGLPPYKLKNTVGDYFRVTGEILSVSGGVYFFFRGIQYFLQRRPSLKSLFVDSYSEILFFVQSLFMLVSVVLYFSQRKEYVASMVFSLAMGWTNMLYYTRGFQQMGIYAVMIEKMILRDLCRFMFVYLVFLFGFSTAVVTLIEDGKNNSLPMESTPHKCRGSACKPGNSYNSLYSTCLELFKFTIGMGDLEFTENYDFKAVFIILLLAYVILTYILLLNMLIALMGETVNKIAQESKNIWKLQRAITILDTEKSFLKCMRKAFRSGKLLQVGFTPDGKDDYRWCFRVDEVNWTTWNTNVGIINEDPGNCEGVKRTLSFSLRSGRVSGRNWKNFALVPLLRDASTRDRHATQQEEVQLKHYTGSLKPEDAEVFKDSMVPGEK

[6] = target: T1, 5-lipoxygenase (Homo sapiens, UniProt P09917); assay: 5-lipoxygenase activity (LTB4) in human peripheral blood mononuclear leukocytes (Assay 6); type: cell-based; details: human PBMLs, A23187 30 μM, read-out: Inhibition of 5-LO (%)
T1 construct: endogenous in cells; host or cells: human peripheral blood mononuclear leukocytes (PBMLs)
T1 sequence (P09917 1-674): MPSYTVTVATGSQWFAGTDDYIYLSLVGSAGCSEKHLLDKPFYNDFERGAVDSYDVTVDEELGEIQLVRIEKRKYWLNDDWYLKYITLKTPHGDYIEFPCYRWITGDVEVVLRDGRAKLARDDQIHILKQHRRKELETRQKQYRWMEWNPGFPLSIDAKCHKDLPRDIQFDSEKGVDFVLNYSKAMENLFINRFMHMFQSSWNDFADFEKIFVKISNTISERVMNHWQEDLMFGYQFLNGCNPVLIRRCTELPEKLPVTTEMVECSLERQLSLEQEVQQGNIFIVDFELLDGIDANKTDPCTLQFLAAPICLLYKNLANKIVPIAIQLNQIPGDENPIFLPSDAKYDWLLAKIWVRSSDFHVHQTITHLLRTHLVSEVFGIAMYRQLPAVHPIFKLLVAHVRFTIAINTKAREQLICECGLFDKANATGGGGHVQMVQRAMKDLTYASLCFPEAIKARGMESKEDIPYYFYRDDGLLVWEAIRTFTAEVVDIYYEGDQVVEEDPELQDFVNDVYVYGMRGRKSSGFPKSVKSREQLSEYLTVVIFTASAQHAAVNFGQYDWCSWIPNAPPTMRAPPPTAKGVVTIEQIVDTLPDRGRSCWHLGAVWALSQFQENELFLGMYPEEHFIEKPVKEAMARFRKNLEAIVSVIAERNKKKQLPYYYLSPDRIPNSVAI
How it was run: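 LTB4 in supernatant quantified by EIA after 15 min at 37° C. in HBSS, pH 7.4, where Ficoll-isolated human PBMLs (5×10^6) received ionophore A23187 (30 μM) and test compound (3 and 30 μM) or 0.1% DMSO vehicle.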

[7] = tested on: 5-HT-induced contractions in guinea pig ileum; assay: Inhibition of 5-HT-induced contractions in guinea pig ileum (Assay 3); details: Cavia porcellus, 5-HT 2.6 μM, read-out: Inhibition of 5-HT-induced contraction (%)
How it was run: as §2

Compound | Decrease in cell viability (%) ([1]; 3 μM) | Decrease in cell viability (%) ([1]; 30 μM) | inhibition at 3 µM [2] | inhibition at 30 µM [2] | inhibition at 3 µM [3] | inhibition at 30 µM [3] | inhibition at 3 µM [4] | inhibition at 30 µM [4] | inhibition at 3 µM [5] | inhibition at 30 µM [5] | Emax at 3 µM [5] | Emax at 30 µM [5] | inhibition at 3 µM [6] | inhibition at 30 µM [6] | inhibition at 3 µM [7] | inhibition at 30 µM [7]
COc1cc(CCC(=O)CC(=O)c2ccccc2C)ccc1O [Compound 84, 5-(4-Hydroxy-3-methoxyphenyl)-1-o-tolylpentane-1,3-dione] | 3% | 12% | 6% | 65% | 19% | 66% | 101% | 102% | 32% | 26% | 54% | 74% | 77% | 98% | 22% | 100%
COC(=O)c1ccc(C(=O)CC(=O)CCc2ccc(O)c(OC)c2)cc1 [Compound 25, Methyl 4-(5-(4-hydroxy-3-methoxyphenyl)-3-oxopentanoyl)benzoate] | −6% | 0% | -3% | 20% | 1% | 43% | 58% | 102% | 18% | 21% | 48% | 59% | 54% | 94% | 12% | 35%
COc1cc(CCC(=O)CC(=O)c2cccc(Cl)c2)ccc1O [Compound 22, 1-(3-Chlorophenyl)-5-(4-hydroxy-3-methoxyphenyl)pentane-1,3-dione] | 3% | 9% | -5% | 25% | 11% | 65% | 93% | 100% | 2% | -58% | 60% | 163% | 62% | 98% | 18% | 94%
COc1cc(CCC(=O)C(C)C(=O)c2ccc(O)c(OC)c2)ccc1O (centres unmarked) [Compound 16, 1,5-Bis(4-hydroxy-3-methoxyphenyl)-2-methyl-pentane-1,3-dione] | 10% | −9% | -8% | 10% | 4% | 22% | 32% | 83% | -49% | -49% | 53% | 52% | 20% | 73% | 0% | 28%
COc1cc(CCC(=O)CC(=O)c2ccccc2-c2ccccc2)ccc1O [Compound 19, 1-(Biphenyl-2-yl)-5-(4-hydroxy-3-methoxyphenyl)-pentane-1,3-dione] | −1% | 57% | 57% | 97% | 8% | 81% | 73% | 100% | -29% | -159% | 139% | 286% | 48% | 99% | 13% | 39%
COc1ccc(C(=O)C(C)C(=O)CCc2ccc(O)c(OC)c2)cc1 (centres unmarked) [Compound 17, 5-(4-Hydroxy-3-methoxyphenyl)-1-(4-methoxyphenyl)-2-methyl-pentane-1,3-dione] | −1% | 4% | -1% | 31% | 3% | 29% | 58% | 98% | -98% | -22% | 55% | 183% | 51% | 95% | 6% | 42%
COc1cc(CCC(=O)C(C)C(=O)c2ccc(C)cc2)ccc1O (centres unmarked) [Compound 14, 5-(4-Hydroxy-3-methoxylphenyl)-2-methyl-1-p-tolyl-pentane-1,3-dione] | 5% | −4% | 11% | 17% | 10% | 54% | 77% | 101% | -12% | 35% | 120% | 94% | 57% | 96% | 10% | 74%
COc1cc(CCC(=O)CC(=O)c2ccc(Cl)cc2)ccc1O [Compound 21, 1-(4-Chlorophenyl)-5-(4-hydroxy-3-methoxyphenyl)pentane-1,3-dione] | 3% | 11% | 6% | 54% | 9% | 68% | 88% | 99% | 6% | -56% | 50% | 150% | 68% | 98% | 9% | 49%

Source: US7589123B2, “Chemical compounds” (Phytopharm PLC, priority 2006, dated 2009)
